From US8748412B2, “Phenylalanine derivatives and their use as non-peptide GLP-1 receptor modulators” (Argusina Bioscience Inc., priority 2011, dated 2014)

Biological target: T1, human GLP1R (Homo sapiens, UniProt P43220)
T1 construct: expressed in transfected cells; host or cells: CHO cells (ATCC), transient transfection with pCMV-human GLP1R
Experiment: Human GLP-1 receptor transfected cell assay (MRE/CRE-luciferase reporter gene, agonist activity)
Assay type: cell-based
Conditions: 6 h; concentration 1 μM; read-out: Activity (agonist), percentage of the activity of the control
Procedure: The glucagon-like peptide I receptor (GLP1R) is a class B Gs-coupled membrane receptor, an agonist of which activates adenylate cyclase (AC) and elevates intracellular cAMP level. In turn, the high content of secondary messengers can activate the cAMP response element binding protein (CREB), which can translocate into nucleus to activate gene transcription.
A reporter gene based screening assay was established to measure the effect of a compound on GLP1R. In this assay, a compound was incubated with CHO cells transiently transfected with a human GLP1R plasmid and a multiple response element (MRE)/cAMP response element (CRE)-driven luciferase reporter plasmid. Once luciferase was induced by the compound, its specific substrate can be activated to produce light signal for measurement.
Materials used in this assay included: (i) cell line: Chinese hamster ovary (CHO) cells (ATCC); (ii) fetal bovine serum (FBS) (Biochrom Co.); (iii) culture medium: RPMI1640 (Invitrogen Co.) supplemented with 10% FBS; (iv) LIPOFECTAMINE™ 2000 Reagent (Invitrogen Co.); (v) plasmids: pCMV-human GLP1R and pGL3-1905 reporter plasmid; (vi) GLP1 (7-36 amide) peptide (Sigma Co.); and (vii) BRIGHT-GLO™ Luciferase Assay System (Promega Co.).
Instruments used in this assay included: (i) Form a carbon dioxide incubator (Thermo Form a Co.); and (ii) Flexstation 3 (Molecular Device Co.).
Before transfection, CHO cells were plated into a 6-well culture plate at 800,000/2 mL/well, and cultured at 37° C. in 5% CO2 overnight. On the transfection day, cells were transfected with receptor plasmid and reporter plasmid using LIPOFECTAMINE™ 2000 reagent. After 6-hour transfection, cells were digested and seeded into 96-well plates at 20,000/100 μL/well. After 14-16 hour incubation, transfected cells were washed with 100 μL serum-free RPMII 640 medium first, and then added 50 μL of the culture medium. The GLP-1 standard and test compounds were respectively diluted to a series of concentrations, which were then added into the above 96-well culture plate at 50 μL/well. The cells were incubated at 37° C. in 5% CO2 for 6 hrs. The activity of luciferase was detected using BRIGHT-GLO™ Luciferase Analytic System, and the reading was performed with a Flexstation3 plate reader machine.

T1 sequence (P43220 24-463): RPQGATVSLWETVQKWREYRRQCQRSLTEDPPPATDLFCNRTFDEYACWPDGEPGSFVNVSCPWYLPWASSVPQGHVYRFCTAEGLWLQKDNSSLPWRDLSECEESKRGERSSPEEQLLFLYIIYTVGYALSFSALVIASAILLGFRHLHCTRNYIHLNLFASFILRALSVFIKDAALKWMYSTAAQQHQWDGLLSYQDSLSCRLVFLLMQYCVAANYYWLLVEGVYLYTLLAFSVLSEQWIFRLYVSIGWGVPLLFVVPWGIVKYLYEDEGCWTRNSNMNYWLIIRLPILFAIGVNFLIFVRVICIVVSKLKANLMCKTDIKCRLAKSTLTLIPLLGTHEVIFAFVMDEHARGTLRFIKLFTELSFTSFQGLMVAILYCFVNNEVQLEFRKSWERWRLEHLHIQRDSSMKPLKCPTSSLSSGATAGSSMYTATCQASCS

SMILES | activation at 1 µM
Cc1ccc(-c2ccc(C(=O)NC(Cc3ccc(-c4noc(-c5ccc(NC(=O)OC(C)(C)C)cc5)n4)c(F)c3)C(=O)O)o2)cc1F (stereo not shown) [Compound 1N] | > 60%
Cc1ccc(-c2cccc(C(=O)NC(Cc3ccc(-c4noc(-c5ccc(NC(=O)OC(C)(C)C)cc5)n4)c(F)c3)C(=O)O)c2)cc1 (stereo not shown) [Compound 1U] | > 60%
CC(C)(C)OC(=O)Nc1ccc(-c2nc(-c3ccc(CC(NC(=O)c4cccc(-c5ccc(F)cc5)c4)C(=O)O)cc3F)no2)cc1 (stereo not shown) [Compound 1V] | 40 to 60%
Cc1ccc(-c2ccc(C(=O)NC(Cc3ccc(-c4noc(-c5ccc(NC(=O)OC(C)C)cc5)n4)c(F)c3)C(=O)O)o2)cc1 (stereo not shown) [Compound 2D] | 40 to 60%
CC(C)(C)OC(=O)Nc1ccc(-c2nc(-c3ccc(CC(NC(=O)c4cccc(-c5ccc(C6CC6)cc5)c4)C(=O)O)cc3F)no2)cc1 (stereo not shown) [Compound 2L] | > 60%

Same assay, conditions: 6 h; concentration 3 μM; read-out: Activity (agonist), percentage of the activity of the control

SMILES | activation at 3 µM
Cc1ccc(-c2ccc(C(=O)N[C@H](Cc3ccc(F)c(-c4noc(-c5ccc(NC(=O)OC(C)(C)C)cc5)n4)c3)C(=O)O)o2)cc1 [Compound 1E] | 40 to 60%
Cc1ccc(-c2ccc(C(=O)NC(Cc3ccc(-c4noc(-c5ccc(NC(=O)OC(C)(C)C)cc5C)n4)c(F)c3)C(=O)O)o2)cc1 (stereo not shown) [Compound 1R] | 20 to 40%
CC(C)(C)OC(=O)Nc1ccc(-c2nc(-c3ccc(CC(NC(=O)c4cccc(-c5ccc(C(F)(F)F)cc5)c4)C(=O)O)cc3F)no2)cc1 (stereo not shown) [Compound 1W] | > 60%
CC(C)(C)OC(=O)Nc1ccc(-c2nc(-c3ccc(CC(NC(=O)c4ccc(-c5ccccn5)s4)C(=O)O)cc3F)no2)cc1 (stereo not shown) [Compound 1X] | 40 to 60%
CC(C)(C)OC(=O)Nc1ccc(-c2nc(-c3ccc(CC(NC(=O)/C=C/c4ccc(Cl)c(C(F)(F)F)c4)C(=O)O)cc3F)no2)cc1 (stereo not shown) [Compound 2B] | 40 to 60%
Cc1ccc(-c2ccc(C(=O)NC(Cc3ccc(-c4noc(-c5ccc(NC(=O)C(C)C)cc5)n4)c(F)c3)C(=O)O)o2)cc1 (stereo not shown) [Compound 2C] | 40 to 60%
Cc1ccc(-c2ccc(C(=O)N[C@H](Cc3cc(C)cc(-c4noc(-c5ccc(NC(=O)OC(C)(C)C)cc5)n4)c3)C(=O)O)o2)cc1 [Compound 2E] | 40 to 60%

Same assay, conditions: 6 h; concentration 3.16 μM; read-out: Activity (agonist), percentage of the activity of the control

SMILES | activation at 3.16 µM
CC(C)(C)OC(=O)Nc1ccc(C(=O)NC(C)(Cc2ccc(OC(=O)c3ccc(NC(=O)OC(C)(C)C)cc3)c(F)c2)C(=O)O)cc1 (stereo not shown) [Compound 1B] | > 60%
CC(C)(C)OC(=O)Nc1ccc(-c2nc(-c3ccc(CC(NC(=O)C4CC4c4ccccc4)C(=O)O)cc3F)no2)cc1 (stereo not shown) [Compound 1D] | 20 to 40%
Cc1ccc(-c2ccc(C(=O)NC(Cc3ccc(-c4noc(-c5ccc(NC(=O)OC(C)(C)C)cc5)n4)c(F)c3)c3nnn[nH]3)o2)cc1 (stereo not shown) [Compound 1H] | > 60%
CN(C)c1ccc(-c2ccc(C(=O)NC(Cc3ccc(-c4noc(-c5ccc(NC(=O)OC(C)(C)C)cc5)n4)c(F)c3)C(=O)O)o2)cc1 (stereo not shown) [Compound 1I] | > 60%
COc1ccc(-c2ccc(C(=O)NC(Cc3ccc(-c4noc(-c5ccc(NC(=O)OC(C)(C)C)cc5)n4)c(F)c3)C(=O)O)o2)cc1 (stereo not shown) [Compound 1J] | > 60%
CC(C)(C)OC(=O)Nc1ccc(-c2nc(-c3ccc(CC(NC(=O)c4ccc(-c5ccc(Cl)cc5Cl)o4)C(=O)O)cc3F)no2)cc1 (stereo not shown) [Compound 1L] | > 60%
CC(C)c1ccc(-c2ccc(C(=O)NC(Cc3ccc(-c4noc(-c5ccc(NC(=O)OC(C)(C)C)cc5)n4)c(F)c3)C(=O)O)o2)cc1 (stereo not shown) [Compound 1O] | 20 to 40%
Cc1ccc(-c2ccc(C(=O)NC(Cc3ccc(-c4noc(-c5ccc(NC(=O)OC(C)(C)C)cc5C(F)(F)F)n4)c(F)c3)C(=O)O)o2)cc1 (stereo not shown) [Compound 1P] | > 60%
Cc1ccc(-c2ccc(C(=O)NC(Cc3ccc(-c4noc(-c5ccc(NC(=O)OC(C)(C)C)cc5)n4)c(F)c3)C(=O)O)o2)cc1Cl (stereo not shown) [Compound 1Q] | > 60%
CC(C)(C)OC(=O)Nc1ccc(-c2nc(-c3ccc(CC(NC(=O)c4cccc(-c5ccc(C#N)cc5)c4F)C(=O)O)cc3F)no2)cc1 (stereo not shown) [Compound 2J] | > 60%
CC(C)c1ccc(-c2cccc(C(=O)NC(Cc3ccc(-c4noc(-c5ccc(NC(=O)OC(C)(C)C)cc5)n4)c(F)c3)C(=O)O)c2)cc1 (stereo not shown) [Compound 2K] | > 60%
CC(C)(C)OC(=O)Nc1ccc(-c2nc(-c3ccc(CC(NC(=O)c4cccc(-c5ccc(C6CC6)cc5)n4)C(=O)O)cc3F)no2)cc1 (stereo not shown) [Compound 2M] | > 60%
CC(C)(C)OC(=O)Nc1ccc(-c2nc(-c3ccc(CC(NC(=O)c4cccc(-c5ccc(Cl)cc5F)n4)C(=O)O)cc3F)no2)cc1 (stereo not shown) [Compound 2N] | > 60%
Cc1cc(-c2nc(C(=O)NC(Cc3ccc(-c4noc(-c5ccc(NC(=O)OC(C)(C)C)cc5)n4)c(F)c3)C(=O)O)c[nH]2)ccc1F (stereo not shown) [Compound 2Q] | > 60%
Cc1ccc(-c2nc(C(=O)NC(Cc3ccc(-c4noc(-c5ccc(NC(=O)OC(C)(C)C)cc5)n4)c(F)c3)C(=O)O)c[nH]2)cc1 (stereo not shown) [Compound 2R] | > 60%

Same assay, conditions: 6 h; concentration 5 μM; read-out: Activity (agonist), percentage of the activity of the control

SMILES | activation at 5 µM
Cc1ccc(-c2ccc(C(=O)NC(Cc3ccc(OC(=O)c4ccc(NC(=O)OC(C)(C)C)cc4)c(F)c3)C(=O)O)o2)cc1 (stereo not shown) [Compound 1A] | > 60%
CC(C)(C)OC(=O)Nc1ccc(-c2nc(-c3ccc(CC(NC(=O)c4ccnc(Cl)c4)C(=O)O)cc3F)no2)cc1 (stereo not shown) [Compound 1F] | > 60%

Same assay, conditions: 6 h; concentration 10 μM; read-out: Activity (agonist), percentage of the activity of the control

SMILES | activation at 10 µM
CC(C)(C)OC(=O)Nc1ccc(-c2nc(-c3ccc(CC(NC(=O)/C=C/c4ccc(F)cc4)C(=O)O)cc3F)no2)cc1 (stereo not shown) [Compound 1C] | > 60%
Cc1ccc(-c2ccc(C(=O)NC(Cc3ccc(-c4noc(-c5ccc(NC(=O)OC(C)(C)C)cc5)n4)c(F)c3)C(=O)O)o2)cc1 (stereo not shown) [Compound 1G, 3-{4-[5-(4-tert-Butoxycarbonylamino-phenyl)-[1,2,4]oxadiazol-3-yl]-3-fluoro-phenyl}-2-[(5-p-tolyl-furan-2-carbonyl)-amino]-propionic acid] | > 60%
Cc1cccc(-c2ccc(C(=O)NC(Cc3ccc(-c4noc(-c5ccc(NC(=O)OC(C)(C)C)cc5)n4)c(F)c3)C(=O)O)o2)c1 (stereo not shown) [Compound 1K] | > 60%
Cc1cc(-c2ccc(C(=O)NC(Cc3ccc(-c4noc(-c5ccc(NC(=O)OC(C)(C)C)cc5)n4)c(F)c3)C(=O)O)o2)ccc1F (stereo not shown) [Compound 1M] | > 60%
CC(C)(C)OC(=O)Nc1ccc(-c2nc(-c3ccc(CC(NC(=O)c4cccc(-c5ccc(Cl)cc5)c4F)C(=O)O)cc3F)no2)cc1 (stereo not shown) [Compound 1S] | 40 to 60%
CC(C)(C)OC(=O)Nc1ccc(-c2nc(-c3ccc(CC(NC(=O)c4cccc(-c5ccc(F)cc5)n4)C(=O)O)cc3F)no2)cc1 (stereo not shown) [Compound 1T] | 40 to 60%
CC(C)(C)OC(=O)Nc1ccc(-c2nc(-c3ccc(CC(NC(=O)c4cnc(-c5ccccc5)[nH]4)C(=O)O)cc3F)no2)cc1 (stereo not shown) [Compound 1Y] | > 60%
CC(C)(C)OC(=O)Nc1ccc(-c2nc(-c3ccc(CC(NC(=O)c4cc(-c5ccccc5)cs4)C(=O)O)cc3F)no2)cc1 (stereo not shown) [Compound 1Z] | 40 to 60%
CC(C)(C)OC(=O)Nc1ccc(-c2nc(-c3ccc(CC(NC(=O)c4cn(-c5ccc(C(F)(F)F)cc5)nn4)C(=O)O)cc3F)no2)cc1 (stereo not shown) [Compound 2A] | > 60%
Cc1ccc(-c2cccc(C(=O)NC(Cc3ccc(-c4noc(-c5ccc(NC(=O)OC(C)(C)C)cc5)n4)c(F)c3)C(=O)O)n2)cc1 (stereo not shown) [Compound 2F] | 10 to 20%
CC(C)(C)OC(=O)Nc1ccc(-c2nc(-c3ccc(CC(NC(=O)c4cccc(-c5ccc(Cl)cc5)c4)C(=O)O)cc3F)no2)cc1 (stereo not shown) [Compound 2G] | 40 to 60%
CCc1ccc(-c2cccc(C(=O)NC(Cc3ccc(-c4noc(-c5ccc(NC(=O)OC(C)(C)C)cc5)n4)c(F)c3)C(=O)O)c2)cc1 (stereo not shown) [Compound 2I] | 40 to 60%
CSc1ccc(-c2cccc(C(=O)NC(Cc3ccc(-c4noc(-c5ccc(NC(=O)OC(C)(C)C)cc5)n4)c(F)c3)C(=O)O)n2)cc1 (stereo not shown) [Compound 2O] | > 60%

Same assay, conditions: concentration 10 μM

SMILES | Activity (agonist), percentage of the activity of the control
Cc1ccc(-n2cc(C(=O)NC(Cc3ccc(-c4noc(-c5ccc(NC(=O)OC(C)(C)C)cc5)n4)c(F)c3)C(=O)O)cn2)cc1F (stereo not shown) [Compound 2P, 3-(4-(5-(4-((tert-butoxcarbonyl)amino)phenyl)-1,2,4-oxadiazol-3-yl)-3-fluorophenyl)-2-(1-(3-fluoro-4-methylphenyl)-1H-pyrazole-4-carboxamido)propanoic acid] | A (A represents a value no smaller than 60%)
